{"source": "patent US7259155B2", "about": "“Phosphonic diester derivatives” (Otsuka Pharmaceutical Factory, Inc., priority 2004, dated 2007)", "target": "T1, ACAT-1 (Homo sapiens, UniProt P35610)", "T1 construct": "To 2.6 ml of broken homogenate having a protein concentration of 2.5 mg/ml was added 0.65 ml of 5×DOC/PC; endogenous in cells; host or cells: SW-13 cells (human adrenal cortical adenocarcinoma); broken homogenate solubilised with deoxycholate/PC and reconstituted into cholesterol/PC vesicles", "T1 sequence (P35610 1-550)": "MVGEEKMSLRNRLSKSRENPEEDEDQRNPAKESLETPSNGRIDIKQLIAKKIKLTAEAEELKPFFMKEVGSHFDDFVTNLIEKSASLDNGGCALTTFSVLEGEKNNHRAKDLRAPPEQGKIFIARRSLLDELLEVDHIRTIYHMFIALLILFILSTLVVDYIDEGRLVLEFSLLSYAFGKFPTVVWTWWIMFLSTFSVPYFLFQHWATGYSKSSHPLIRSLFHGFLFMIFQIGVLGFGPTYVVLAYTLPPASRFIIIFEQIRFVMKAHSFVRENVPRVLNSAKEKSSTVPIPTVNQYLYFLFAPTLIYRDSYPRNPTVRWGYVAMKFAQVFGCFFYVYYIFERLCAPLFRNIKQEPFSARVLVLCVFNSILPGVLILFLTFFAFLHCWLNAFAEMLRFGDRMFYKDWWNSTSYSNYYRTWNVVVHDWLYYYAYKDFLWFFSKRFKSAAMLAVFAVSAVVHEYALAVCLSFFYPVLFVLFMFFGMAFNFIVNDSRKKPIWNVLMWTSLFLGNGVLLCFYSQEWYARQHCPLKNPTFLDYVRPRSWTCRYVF", "experiment": "ACAT-1 Inhibitory Action Test 1 (reconstituted vesicle assay, enzyme solution from SW-13 cell broken homogenate)", "format": "biochemical", "conditions": "test substance 1×10^−3 mol/l in DMSO, 2.5 μl added to 200 μl enzyme solution + 50 μl substrate solution; 37° C., 30 minutes; decrease in total cholesterol ester vs DMSO control", "procedure": "SW-13 cells (derived from human adrenal cortical adenocarcinoma) were cultured on a culture plate until confluence in an L-15 culture medium containing 10% fetal bovine serum (FBS) in a carbon dioxide incubator.\nBroken homogenates were collected according to a published procedure (hypotonic shock and scrapping method, Anal. Biochem., 116, 298–302 (1981)), subjected to protein quantitation (Bradford method), and stored at −80° C. till use.\nChol/PC vesicles (Chol/PC=3.9 mM/12.8 mM) were prepared according to a method described by Chang et al. (Chang, T. Y. et al., Anal. Biochem., 157, 323–330 (1986)). […]\nWith respect to the hexane phase in the glass test tube, the solvent was removed under a nitrogen gas stream. […] Using a bio-imaging analyzer (BAS-2000II, manufactured by Fuji Photo Film Co., Ltd.), the ^14C of the cholesterol ester fraction was quantified.\nWith respect to the hexane phase in the scintillation vial, ^3H was counted after adding a scintillation cocktail. Based on the amount of ^3H in the [^3H]-cholesteryl oleate-containing ethanol, the extraction efficiency was calculated. Based on the extraction efficiency, the amount of total cholesterol ester produced was calculated. In comparison with the control, decrease in the amount of the total cholesterol ester produced when a test substance was used was expressed as ACAT-1 enzyme inhibition (%)."}
{"substance": "diethyl 4-(7-chloro-3-N-(4-methyl -benzylideneamin)-4(3H)-quinazolinon-2-yl)benzylphosphonate [Example 1]", "values": [{"measurement": "ACAT-1 enzyme inhibition (%)", "value": 75, "unit": "%"}]}
